What was measured:
[1] = system: Lectin Pathway; test: Lectin Pathway Activation Assay in Human Serum (mannan-coated ELISA, C3c detection); format: biochemical; conditions: 1% human serum
Protocol: Microtiter ELISA plate was coated with mannan from Saccharomyces cerevisiae (Sigma-Aldrich, M7504) for overnight at 4° C. in coating buffer [15 mM Na2CO3, 35 mM NaHCO3].

[2] = biological target: MASP-2 CCP2-SP (Homo sapiens (Human), UniProt O00187); test: MASP-2 co-crystallization, X-ray crystallography and structure analysis (H-bonds, van der Waals contacts); set-up: van der Waals contact distance, MASP-2 HIS 483 atom CD2 / van der Waals contact distance, MASP-2 HIS 483 atom NE2 / van der Waals contact distance, SER 654 C to compound atom / van der Waals contact distance, SER 654 O to compound atom / van der Waals contact distance, TRP 655 C to compound atom / van der Waals contact distance, MASP-2 GLY 528 atom CA / van der Waals contact distance TRP 655 atom CZ3 / van der Waals contact distance TRP 655 atom N / van der Waals contact distance TRP 655 atom CE3 / van der Waals contact distance GLY 656 atom C / van der Waals contact distance GLY 656 atom CA / van der Waals contact distance GLY 656 atom O / van der Waals contact distance, MASP-2 TYR 607 atom CD1 / van der Waals contact distance, MASP-2 PRO 606 atom O / d(C3,CA1) / d(CA1,N1)2 / d(H4,O1) / d(H4,O2) / d(O1,O2) / d(CA1,O2) / d(CA6,O1) / d(CA6,O2) / d(CA1,C5) / d(O2,H3) / d(N2,C2) / d(CA5,N2) / d(N2,C4) / d(N2,C6) / d(N2,CA3) / d(N2,O3) / d(O4,H2): unit not given beside the values;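 on Ligand-pharmacophore element distance, pharmacophore element C2: distance from averaged pharmacophore element to bound ligand; missing value means element absent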;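 on Ligand-pharmacophore element distance, pharmacophore element C3: distance from averaged pharmacophore element to bound ligand; missing value means element absent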;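 on Ligand-pharmacophore element distance, pharmacophore element C4: distance from averaged pharmacophore element to bound ligand; missing value means element absent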;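 on Ligand-pharmacophore element distance, pharmacophore element C5: distance from averaged pharmacophore element to bound ligand; missing value means element absent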
Summary of the method: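 Inhibitor complexes were obtained by soaking crystals of E. coli-derived human MASP-2 CCP2-SP. Synchrotron diffraction at 1.0 wavelength, molecular replacement and partial refinement gave the models; one pose per ligand was chosen for contact analysis.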

[3] = Table A5-1 pharmacophore: distance between elements, S2/S1 region
[4] = Table A5-2 pharmacophore distance, S3/S4 region
[5] = Table A7-1, between pharmacophore elements of the bound compound
[6] = Table A8-6, nearest protein atom in cell to the left

MASP-2 CCP2-SP, sequence (O00187 445-686): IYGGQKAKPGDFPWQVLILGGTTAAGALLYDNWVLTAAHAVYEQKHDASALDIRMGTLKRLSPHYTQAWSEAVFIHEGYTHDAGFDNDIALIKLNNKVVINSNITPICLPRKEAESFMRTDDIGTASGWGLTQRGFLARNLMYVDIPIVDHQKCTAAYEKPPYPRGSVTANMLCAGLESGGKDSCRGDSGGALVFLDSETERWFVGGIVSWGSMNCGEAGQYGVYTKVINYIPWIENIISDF
MASP-2 CCP2-SP, sequence (O00187 364-432 partner): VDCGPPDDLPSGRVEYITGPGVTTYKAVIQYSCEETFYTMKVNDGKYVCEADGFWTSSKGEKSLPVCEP

## C[C@H](NC(=O)[C@H]1C[C@@H](c2ccccc2)CCN1)C(=O)NCc1ccc(C(=N)N)cc1 (stereo in doubt) [compound 1065]
[1]
  IC50: < 50 nM
[2]; Table A1 (H-Bonds), ASP 627 OD1
  H-bond distance to MASP-2 ASP 627 atom OD1: 3.14
[2]; Table A1 (H-Bonds), ASP 627 OD2
  H-bond distance to MASP-2 ASP 627 atom OD2: 3.08
[2]; Table A1 (H-Bonds), GLY 656 N
  H-bond distance to MASP-2 GLY 656 atom N: 3.31
[2]; Table A1 (H-Bonds), SER 654 O
  H-bond distance to MASP-2 SER 654 atom O: 2.92
[2]; Table A2-1
  van der Waals contact distance, MASP-2 HIS 483 atom CD2: 3.67
[2]; Table A2-9, ARG 630, AA atoms CG, CZ
  van der Waals contact distance, MASP-2 amino acid atom to compound atom: 3.55
[2]; Table A2-11
  van der Waals contact distance, SER 654 C to compound atom: 3.78
  van der Waals contact distance, VAL 653 CG1 to compound atom: 3.6
[2]; Table A2-12
  van der Waals contact distance, TRP 655 CA to compound atom: 3.46
[2]; Table A2-13, MASP-2 TRP 655 CE3, compound atom in line below
  van der Waals contact distance TRP 655 atom CE3: 3.6
[2]; Table A4-1, element C2
  Ligand-pharmacophore element distance, pharmacophore element C2: 0.11
[2]; Table A4-1, element C3
  Ligand-pharmacophore element distance, pharmacophore element C3: 0
[2]; Table A4-1, element C4
  Ligand-pharmacophore element distance, pharmacophore element C4: 0
[2]; Table A4-1, element C5
  Ligand-pharmacophore element distance, pharmacophore element C5: 0
[2]; Table A4-1, element C6
  Ligand-pharmacophore element distance, pharmacophore element C6: 0
[2]; Table A4-1, element C7
  Ligand-pharmacophore element distance, pharmacophore element C7: 0
[2]; Table A4-1, element CA1
  Ligand-pharmacophore element distance, pharmacophore element CA1: 0.88
[2]; Table A4-1, element CA2
  Ligand-pharmacophore element distance, pharmacophore element CA2: 0.1
[2]; Table A4-1, element CA3
  Ligand-pharmacophore element distance, pharmacophore element CA3: 0
[2]; Table A4-1, element CA4
  Ligand-pharmacophore element distance, pharmacophore element CA4: 0
[2]; Table A4-1, element CA5
  Ligand-pharmacophore element distance, pharmacophore element CA5: 0
[2]; Table A4-1, element CA6
  Ligand-pharmacophore element distance, pharmacophore element CA6: 0
[2]; [3]
  d(CA1,N1): 3.47
  d(CA1,O1): 4.32
  d(CA1,O2): 4.20
  d(H4,O1): 6.39
  d(H4,O2): 5.35
  d(O1,O2): 3.30
[2]; [4]
  d(N2,C2): 1.40
  d(N2,CA2): 5.75
  d(O2,H3): 4.40
  d(O2,N2): 2.83
[2]; Table A6-1 pharmacophore angle
  a(CA1, O1, O2): 110.77
  a(O1, O2, H4): 148.95
[2]; Table A6-1 pharmacophore angle, all compounds with protonatable center N1 except Methyl-amino-pyridine
  A(N1, CA1, O1) a): 165.45
[2]; Table A6-2 pharmacophore angle
  a(O1, O2, H3): 145.76
  a(O1, O2, N2): 144.81
  a(O2, N2, C2): 124.85
  a(O2, N2, CA2): 154.55
[2]; [5]
  Pharmacophore torsion angle a(H4, O1, O2, H3): 44.38
  Pharmacophore torsion angle a(H4, O1, O2, N2): 129.83
  Pharmacophore torsion angle a(N1, CA1, O2, H4): −89.34
  Pharmacophore torsion angle a(O1, H4, O2, CA1): −21.94
  Pharmacophore torsion angle a(O1, O2, N2, C2): 124.96
[2]; Table A7-2, between pharmacophore elements of the bound compound
  Pharmacophore torsion angle a(O1, O2, N2, CA2): 129.88
[2]; Table A8-6, 6th residue column, nearest protein atom in cell to the left
  Pharmacophore protein distance to MET_658 (first MET_658 column): 3.34
[2]; Table A8-6, 9th residue column, nearest protein atom in cell to the left
  Pharmacophore protein distance to MET_658 (second MET_658 column): 3.79
[2]; [6]
  Pharmacophore protein distance to GLY_528: 3.56
  Pharmacophore protein distance to PHE_529: 2.70
  Pharmacophore protein distance to PRO_608: 3.75
  Pharmacophore protein distance to SER_611: 2.57
[2]; Table A8-6, pharmacophore elements C6, CA3, O3, H1, nearest protein atom in cell to the left
  Pharmacophore protein distance to TRP_655: 3.87
